# Counter-ions that a name gives are not always drawn.
# Biological target: T1, Full-length USP19 (Homo sapiens, UniProt O94966)
# T1 construct: Full-length USP19 was purchased from Boston Biochem (E-576); purchased Boston Biochem E-576
# T1 sequence (O94966 1-1318): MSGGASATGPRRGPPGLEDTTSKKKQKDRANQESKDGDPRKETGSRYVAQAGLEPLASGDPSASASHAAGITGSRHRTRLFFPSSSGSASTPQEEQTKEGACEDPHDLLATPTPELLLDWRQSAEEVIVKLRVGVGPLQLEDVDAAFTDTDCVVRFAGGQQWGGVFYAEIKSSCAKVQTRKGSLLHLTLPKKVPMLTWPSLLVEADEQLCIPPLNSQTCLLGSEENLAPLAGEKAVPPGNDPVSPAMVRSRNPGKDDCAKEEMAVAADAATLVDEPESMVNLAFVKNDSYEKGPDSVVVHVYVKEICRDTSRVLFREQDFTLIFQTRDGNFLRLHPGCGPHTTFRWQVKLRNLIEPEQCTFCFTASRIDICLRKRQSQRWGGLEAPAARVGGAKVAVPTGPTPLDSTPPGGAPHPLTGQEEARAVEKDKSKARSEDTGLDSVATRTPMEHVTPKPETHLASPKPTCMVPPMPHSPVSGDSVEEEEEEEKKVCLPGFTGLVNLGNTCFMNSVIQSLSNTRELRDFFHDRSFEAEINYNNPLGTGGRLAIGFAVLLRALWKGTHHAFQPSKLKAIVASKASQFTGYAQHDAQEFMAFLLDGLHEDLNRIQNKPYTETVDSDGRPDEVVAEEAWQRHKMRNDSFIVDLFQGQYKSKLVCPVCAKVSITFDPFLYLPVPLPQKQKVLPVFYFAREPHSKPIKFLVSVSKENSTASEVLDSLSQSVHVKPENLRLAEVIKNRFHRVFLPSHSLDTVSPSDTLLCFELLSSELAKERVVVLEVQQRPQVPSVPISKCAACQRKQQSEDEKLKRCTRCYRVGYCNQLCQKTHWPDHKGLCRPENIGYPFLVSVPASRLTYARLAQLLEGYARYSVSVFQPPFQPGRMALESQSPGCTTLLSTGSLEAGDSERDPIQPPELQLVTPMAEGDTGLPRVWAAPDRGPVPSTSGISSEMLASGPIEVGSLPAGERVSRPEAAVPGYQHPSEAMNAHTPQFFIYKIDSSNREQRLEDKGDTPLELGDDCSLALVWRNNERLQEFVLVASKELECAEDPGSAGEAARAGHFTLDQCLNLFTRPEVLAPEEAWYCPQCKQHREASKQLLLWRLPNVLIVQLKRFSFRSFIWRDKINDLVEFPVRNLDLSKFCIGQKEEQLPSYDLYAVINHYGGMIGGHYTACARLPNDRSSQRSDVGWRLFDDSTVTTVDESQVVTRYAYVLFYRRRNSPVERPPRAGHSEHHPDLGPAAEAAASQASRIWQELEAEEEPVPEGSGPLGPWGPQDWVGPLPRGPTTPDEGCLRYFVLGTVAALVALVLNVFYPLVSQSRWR
# Assay: USP19 fluorescence polarisation (FP) assay, Ubiquitin-Lys-TAMRA substrate
# Assay type: biochemical
# Conditions: average of at least two duplicate experiments
# How it was run: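 Fluorescence polarisation (excitation 530 nm, parallel and perpendicular emission at 575 nm) was recorded every 15 min for 90 min after adding the ubiquitin-Lys-TAMRA isopeptide (500 nM as dispensed). Beforehand, the full-length enzyme (2.5 nM as dispensed) sat 30 min at RT with compound diluted from 200 μM to 2 μM in HEPES pH 7.4 buffer with 150 mM NaCl, 5 mM DTT, 0.05% BSA and 0.05% CHAPS. Values normalised to uninhibited wells gave IC50s by non-linear fitting, each the mean of two or more duplicate runs.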
row,IC50 [nM],Compound
1,< 10,"CN[C@@H]1CCN(C(=O)N2CC[C@@H](CN3CCC(c4ccccc4)=CC3=O)C3(CCCC3)C2)[C@H](c2cc(F)ccc2F)C1 [Example 168, 1-(((R)-7-((2S,4R)-2-(2,5-Difluorophenyl)-4-(methylamino)piperidine-1-carbonyl)-7-azaspiro[4.5]decan-10-yl)methyl)-4-phenyl-5,6-dihydropyridin-2(1H)-one]"
2,1000 to 20000,COC(=O)[C@@H]1CCN(C(=O)N2CC[C@@H](Cn3cnc(-c4ccccc4)cc3=O)C3(CCCC3)C2)[C@H](c2ccccc2)C1 [Example 76]
3,< 10,"CC(=O)N[C@@H]1CCN(C(=O)N2CC[C@@H](Cn3cnc(-c4ccccc4)cc3=O)C3(CCCC3)C2)[C@H](c2cc(F)ccc2F)C1 [Example 155, N-((2S,4R)-2-(2,5-Difluorophenyl)-1-((R)-10-((6-oxo-4-phenylpyrimidin-1(6H)-yl)methyl)-7-azaspiro[4.5]decane-7-carbonyl)piperidin-4-yl)acetamide]"
4,100 to 1000,N[C@@H]1CCN(C(=O)N2CC[C@H](Cn3cnc(-c4ccccc4)cc3=O)C3(CCCC3)C2)[C@H](c2ccccc2)C1 [Example 26]
5,10 to 100,"O=C(N[C@@H]1CCN(C(=O)N2CC[C@@H](Cn3cnc4ccc(F)cc4c3=O)C3(CCCC3)C2)[C@H](c2cc(F)ccc2F)C1)C1CC1 [Example 173, N-((2S,4R)-2-(2,5-Difluorophenyl)-1-((R)-10-((6-fluoro-4-oxoquinazolin-3(4H)-yl)methyl)-7-azaspiro[4.5]decane-7-carbonyl)piperidin-4-yl)cyclopropanecarboxamide]"
6,< 10,"CC1(c2cc(=O)n(CC3CCN(C(=O)N4CC[C@@H](N)C[C@H]4c4ccccc4)CC34CCCC4)cn2)CC1 (stereo partly drawn) [Example 36, 3-((7-((2S,4R)-4-Amino-2-phenylpiperidine-1-carbonyl)-7-azaspiro[4.5]decan-10-yl)methyl)-6-(1-methylcyclopropyl) pyrimidin-4(3H)-one]"
7,10 to 100,"O=C(N1CC=C(Cn2cnc(-c3ccccc3)cc2=O)C2(CCCC2)C1)N1CCNC[C@H]1c1ccccc1 (single isomer, unassigned) [Example 2]"
8,10 to 100,"O=C(N1CC[C@@H](Cn2ccc(Cl)cc2=O)C2(CCCC2)C1)N1CC[C@@H](NCC(F)F)C[C@H]1c1cc(F)ccc1F [Example 185, 4-Chloro-1-(((R)-7-((2S,4R)-4-((2,2-difluoroethyl)amino)-2-(2,5-difluorophenyl)piperidine-1-carbonyl)-7-azaspiro[4.5]decan-10-yl)methyl)pyridin-2(1H)-one]"
9,< 10,"CN[C@@H]1CCN(C(=O)N2CC[C@@H](Cn3cnc4ccc(Cl)cc4c3=O)C3(CCCC3)C2)[C@H](c2cc(F)ccc2F)C1 [Example 198, 6-Chloro-3-(((R)-7-((2S,4R)-2-(2,5-difluorophenyl)-4-(methylamino)piperidine-1-carbonyl)-7-azaspiro[4.5]decan-10-yl)methyl)quinazolin-4(3H)-one]"

# The next lines start with the molecule.
row,Compound,IC50 [nM]
1,"CN[C@@H]1CCN(C(=O)N2CC[C@@H](Cn3ccc(-c4ccccc4)cc3=O)C(C)(C)C2)[C@H](c2ccccc2)C1 [Example 72, 1-(((R)-3,3-Dimethyl-1-((2S,4R)-4-(methylamino)-2-phenylpiperidine-1-carbonyl)piperidin-4-yl)methyl)-4-phenylpyridin-2(1H)-one]",< 10
2,"O=C(N1CC[C@@H](Cn2cnc(-c3ccccc3)cc2=O)C2(CCCC2)C1)N1CC[C@@H](Nc2ccccc2)C[C@H]1c1ccccc1 [Example 150, 6-Phenyl-3-(((R)-7-((2S,4R)-2-phenyl-4-(phenylamino)piperidine-1-carbonyl)-7-azaspiro[4.5]decan-10-yl)methyl)pyrimidin-4(3H)-one]",1000 to 20000
3,"CN(C)C(=O)[C@@H]1CCN(C(=O)N2CC[C@@H](Cn3cnc(-c4ccccc4)cc3=O)C3(CCCC3)C2)[C@H](c2ccccc2)C1 [Example 177, (2S,4R)-N,N-Dimethyl-1-((R)-10-((6-oxo-4-phenylpyrimidin-1(6H)-yl)methyl)-7-azaspiro[4.5]decane-7-carbonyl)-2-phenylpiperidine-4-carboxamide]",1000 to 20000
4,"N[C@@H]1CCN(C(=O)N2CCC(F)(Cn3cnc(-c4ccccc4)cc3=O)C3(CCCC3)C2)[C@H](c2ccccc2)C1 (stereo partly drawn) [Example 57, 3-((7-((2S,4R)-4-Amino-2-phenylpiperidine-1-carbonyl)-10-fluoro-7-azaspiro[4.5]decan-10-yl)methyl)-6-phenylpyrimidin-4(3H)-one]",< 10
5,"CN[C@@H]1CCN(C(=O)N2CCC(Cn3ccc(-c4ccccc4)cc3=O)CC2)[C@H](c2ccccc2)C1 [Example 47, 1-((1-((2S,4R)-4-(Methylamino)-2-phenylpiperidine-1-carbonyl)piperidin-4-yl)methyl)-4-phenylpyridin-2(1H)-one]",< 10
6,"CN[C@@H]1CCN(C(=O)N2CC[C@@H](Cn3cnc4ccc(F)cc4c3=O)C3(CCCC3)C2)[C@H](c2cc(F)cc(F)c2)C1 [Example 153, 3-(((R)-7-((2S,4R)-2-(3,5-Difluorophenyl)-4-(methylamino)piperidine-1-carbonyl)-7-azaspiro[4.5]decan-10-yl)methyl)-6-fluoroquinazolin-4(3H)-one]",< 10
7,"CN[C@@H]1CCN(C(=O)N2CC[C@@H](Cn3ccc(-c4ccccc4OC)cc3=O)C3(CCCC3)C2)[C@H](c2cc(F)cc(F)c2)C1 [Example 126, 1-(((R)-7-((2S,4R)-2-(3,5-Difluorophenyl)-4-(methylamino)piperidine-1-carbonyl)-7-azaspiro[4.5]decan-10-yl)methyl)-4-(2-methoxyphenyl)pyridin-2(1H)-one]",< 10
8,"N[C@@H]1CCN(C(=O)N2CC[C@@H](Cn3ccc(-c4ccccc4)cc3=O)C3(CCCC3)C2)[C@H](c2cc(F)cc(F)c2)C1 [Example 108, 1-(((R)-7-((2S,4R)-4-Amino-2-(3,5-difluorophenyl)piperidine-1-carbonyl)-7-azaspiro[4.5]decan-10-yl)methyl)-4-phenylpyridin-2(1H)-one]",< 10
9,"O=C(N1CC[C@@H](Cn2ccc(-c3ccccc3)cc2=O)C2(CCCC2)C1)N1CC[C@@H](O)C[C@H]1c1ccccc1 [Example 44, 1-(((R)-7-((2S,4R)-4-Hydroxy-2-phenylpiperidine-1-carbonyl)-7-azaspiro[4.5]decan-10-yl)methyl)-4-phenylpyridin-2(1H)-one]",10 to 100
10,"N[C@@H]1CCN(C(=O)N2CCC(Cn3cnc(C(F)F)cc3=O)C3(CCCC3)C2)[C@H](c2ccccc2)C1 (stereo partly drawn) [Example 28, 3-((7-((2S,4R)-4-Amino-2-phenylpiperidine-1-carbonyl)-7-azaspiro[4.5]decan-10-yl)methyl)-6-(difluoromethyl) pyrimidin-4(3H)-one]",10 to 100
11,"O=C(N1CC[C@@H](Cn2cnc3ccc(F)cc3c2=O)C2(CCCC2)C1)N1CC[C@@H](N2CCOCC2)C[C@H]1c1ccccc1 [Example 171, 6-Fluoro-3-(((R)-7-((2S,4R)-4-morpholino-2-phenylpiperidine-1-carbonyl)-7-azaspiro[4.5]decan-10-yl)methyl)quinazolin-4(3H)-one hydrochloride]",100 to 1000
12,"CCN[C@@H]1CCN(C(=O)N2CC[C@@H](Cn3cnc(-c4ccccc4)cc3=O)C3(CCCC3)C2)[C@H](c2cc(F)ccc2F)C1 [Example 156, 3-(((R)-7-((2S,4R)-2-(2,5-Difluorophenyl)-4-(ethylamino)piperidine-1-carbonyl)-7-azaspiro[4.5]decan-10-yl)methyl)-6-phenylpyrimidin-4(3H)-one]",< 10

# — patent US20240327382A1 (ALMAC DISCOVERY LIMITED, priority 2021, published 2024)
